Data set [1] deals with C57BL/6 mice treated with TNFα. Kind of data set: Mouse TNFα-induced model of vascular inflammation. The settings on record: 10 mg/kg, total plasma concentration x 1.7% free. It counts as in vivo. As for the experimental part:
(§1) Male C57BL/6 mice (n=30, 22 g, 8 weeks) were studied. The TNFα/olinciguat group of mice (n=10) was administered 10 mg/kg olinciguat p.o., formulated in 0.1 ml 100% PEG, followed byintraperitoneal (i.p.) injection of 50 ng of mouse TNFα formulated in 0.5 ml pyrogen-free 0.9% NaCl solution one hour later. The TNFα/vehicle control group of mice (n=10) was treated with p.o. vehicle, followed by i.p. injection of 50 ng of mouse TNFα after one h. A naïve, non-treated control group of mice (n=10) was included in the study. […] Plasma levels of olinciguat were determined by LCMS. Plasma samples were diluted 1:300 for determination of sL-selectin, sP-selectin, sE-selectin, and sICAM-1 by ELISA.
(§2) In the vascular inflammation model, data were analyzed by one-way ANOVA, followed by Dunnett's multiple comparison to the TNFα-vehicle control.

The nature of data set [2]: Mouse TNFα-induced model of vascular inflammation. It counts as in vivo. Conditions: male, C57BL/6, mouse, plasma, po; mice, 10 mg/kg p.o., at euthanasia; read-out: plasma concentration of olinciguat. As for the experimental part:
as §1, §2

In data set [3] the target is T1, sGC (Homo sapiens, UniProt Q02108+Q02153).
T1 construct: HEK-293 cells endogenously expressing sGC were treated with olinciguat; host or cells: HEK-293
T1 sequence (Q02153 1-619): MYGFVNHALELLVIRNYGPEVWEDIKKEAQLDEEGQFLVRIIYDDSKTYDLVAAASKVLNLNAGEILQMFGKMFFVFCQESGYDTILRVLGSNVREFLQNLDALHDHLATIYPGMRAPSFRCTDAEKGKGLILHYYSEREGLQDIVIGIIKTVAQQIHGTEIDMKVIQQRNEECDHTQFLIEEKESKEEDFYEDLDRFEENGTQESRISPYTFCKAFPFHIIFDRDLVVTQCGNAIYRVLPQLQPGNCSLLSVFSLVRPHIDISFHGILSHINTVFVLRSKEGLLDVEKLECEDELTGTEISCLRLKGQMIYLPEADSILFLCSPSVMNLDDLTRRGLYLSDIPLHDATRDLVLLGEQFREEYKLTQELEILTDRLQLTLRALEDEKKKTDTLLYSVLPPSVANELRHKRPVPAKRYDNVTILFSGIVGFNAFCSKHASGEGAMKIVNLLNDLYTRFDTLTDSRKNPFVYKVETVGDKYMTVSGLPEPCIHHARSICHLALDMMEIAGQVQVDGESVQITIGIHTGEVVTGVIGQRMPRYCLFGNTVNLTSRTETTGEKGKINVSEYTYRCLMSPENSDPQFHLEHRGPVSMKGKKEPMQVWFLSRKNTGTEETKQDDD
T1 sequence (Q02108 1-690): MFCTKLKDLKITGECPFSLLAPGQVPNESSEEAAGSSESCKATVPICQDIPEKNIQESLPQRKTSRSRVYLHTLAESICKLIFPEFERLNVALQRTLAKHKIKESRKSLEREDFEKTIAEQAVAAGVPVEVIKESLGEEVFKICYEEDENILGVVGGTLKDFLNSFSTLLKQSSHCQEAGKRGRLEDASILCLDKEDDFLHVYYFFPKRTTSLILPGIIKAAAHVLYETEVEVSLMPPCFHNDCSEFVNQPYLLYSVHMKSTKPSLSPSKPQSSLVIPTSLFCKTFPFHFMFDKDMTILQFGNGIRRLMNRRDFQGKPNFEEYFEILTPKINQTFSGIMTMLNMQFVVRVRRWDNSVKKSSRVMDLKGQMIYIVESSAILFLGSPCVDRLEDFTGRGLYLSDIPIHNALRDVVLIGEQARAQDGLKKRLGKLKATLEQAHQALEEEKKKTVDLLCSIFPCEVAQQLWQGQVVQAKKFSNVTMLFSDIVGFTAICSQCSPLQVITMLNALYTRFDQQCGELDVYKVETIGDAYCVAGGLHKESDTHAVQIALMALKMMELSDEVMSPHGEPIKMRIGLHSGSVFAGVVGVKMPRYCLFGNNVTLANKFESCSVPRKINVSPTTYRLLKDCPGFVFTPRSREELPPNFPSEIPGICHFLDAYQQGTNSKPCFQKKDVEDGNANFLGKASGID
Kind of data set: sGC whole cell assay (HEK-293, cGMP production). The format is cell-based. As for the experimental part: The human embryonic kidney (HEK)-293 whole cell assay was performed as described ([Tobin et al., 2018]). Briefly, HEK-293 cells (ATCC, Manassas, VA, #CRL-1573) were maintained in Dulbecco's modified Eagle's medium (DMEM) containing serum and antibiotics. Assays were performed in 384-well plates at 37°C by preincubating with 0.5 mM 3-isobutyl-1-methylxanthine (IBMX) in Hanks' Balanced Salt Solution (HBSS) containing calcium and magnesium for 15 min, then adding olinciguat with or without the NO donor diethylenetriamine NONOate (DETA), followed by a 20-min incubation. Cells were lysed with ice-cold 10% acetic acid then centrifuged, and cGMP levels in supernatants were determined by reverse-phase liquid chromatography with tandem mass spectrometry (LC-MS/MS). Concentration-response data were fit using a four-parameter fit (log(agonist) vs response – variable slope) using GraphPad Prism v.7.

Read-outs that look alike come from different tables or passages of the source.

For `NC(=O)[C@](O)(CNc1nc(-c2cc(-c3ccon3)n(Cc3ccccc3F)n2)ncc1F)C(F)(F)F` [olinciguat, (R)-3,3,3-trifluoro-2-(((5-fluoro-2-(1-(2-fluorobenzyl)-5-(isoxazol-3-yl)-1H-pyrazol-3-yl)pyrimidin-4-yl)amino)methyl)-2-hydroxypropanamide], the “Olinciguat concentration (free)” value in data set [1] is listed as 8.2–10.2 nM^f. Besides, the concentration at 5 h in data set [2] turned out to be 544 ± 61 nM. Further, the EC50 in data set [3] (HEK-293 cells endogenously expressing sGC, in the presence of 10 µM DETA, geometric mean of 14 experiments, 95% CI 42.7 to 105 nM, read-out: EC50, cGMP production) was 73.8 nM; in data set [3] (Table 2 summary, 10 µM DETA, read-out: Human cellular sGC assay (HEK-293) EC50, olinciguat concentration (range = 95% CI)), 42.7 to 105 nM.

The values are drawn from article PMC7156612, “Olinciguat, an Oral sGC Stimulator, Exhibits Diverse Pharmacology Across Preclinical Models of Cardiovascular, Metabolic, Renal, and Inflammatory Disease” (Frontiers in Pharmacology, 2020).
